Biological target: TNFα (Homo sapiens (Human), UniProt P01375)
Experiment: TNF induced HEK-Blue assay
Type: cell-based
Details: TNFα 0.5 ng/ml; HEK-Blue-CD40L cells, NF-κB-driven secreted alkaline phosphatase reporter; 18 h
Method in brief: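 Compounds at 0.004–25 μM final were preincubated 30 min with TNFα (0.5 ng/ml final) in DMEM/10% FBS. HEK-Blue-CD40L cells carrying an NF-κB-driven SEAP reporter (20,000/well) were then added for 18 h at 37 °C, 5% CO2, and SEAP was read by QUANTI-Blue at 620 nm. IC50 came from a 4-parameter logistic fit, normalized to unstimulated and stimulated DMSO controls.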

Sequence of TNFα (P01375 77-233): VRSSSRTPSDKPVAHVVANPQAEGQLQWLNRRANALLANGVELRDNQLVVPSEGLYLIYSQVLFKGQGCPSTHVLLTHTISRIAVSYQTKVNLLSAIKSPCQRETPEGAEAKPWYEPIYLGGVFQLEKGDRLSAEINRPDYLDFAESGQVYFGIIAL

IC50	Structure (SMILES)
1 to 10 µM	COc1ccc(-c2ccc3nc4n(c3n2)[C@@H](c2cc(C)ccc2C)CC4)cn1 [Example 39, (R)-8-(2,5-dimethylphenyl)-2-(6-methoxypyridin-3-yl)-7,8-dihydro-6H-pyrrolo[2′,1′:2,3]imidazo[4,5-b]pyridine]
1 to 10 µM	Cc1ccc(C)c([C@H]2CCc3nc4ccc(-c5cnn(C)c5)nc4n32)c1 [Example 40, (R)-8-(2,5-dimethylphenyl)-2-(1-methyl-1H-pyrazol-4-yl)-7,8-dihydro-6H-pyrrolo[2′,1′:2,3]imidazo[4,5-b]pyridine]
